In this test the test system is NCI-H929 multiple myeloma cells. The test is described as follows: Cell Titer-GLO (CTG) assay for proliferation of NCI-H929 cells. In kind it is cell-based. The following applies: Homo sapiens, 72 hours. As for the experimental part:
1. Experimental objective: To determine inhibitory activities of compounds on NCI-H929 multiple myeloma cells.
NCI-H929 cells, purchased from Nanjing Cobioer Biotechnology Co., Ltd, were cultured in RPM11640 (Viva; C3010-0500) medium containing 10% fetal bovine serum (Viva, C04002-500) and 1% of penicillin-streptomycin at 37° C. with 5% of C02 and saturated humidity conditions.
The cells in logarithmic growth phase were plated at 5000 cells per well of a 96-well plate and after overnight incubation, compounds at 0.00512 nM, 0.0256 nM, 0.128 nM, 0.64 nM, 3.2 nM, 16 nM, 80 nM, and 400 nM were dosed into the plate with each dose in 2 duplicate wells. Cells were incubated at 37° C., 5% CO2 for 72 hours. After the incubation, the plate was placed at room temperature for half an hour, and then 50 μL of Cell Titer-Glo® (Promega, G7573) was added. The plate was placed on a shaker for uniform mixing for 2 minutes and was placed in the dark at room temperature for 10 minutes. The luminance signal was measured using SpectraMax Paradigm (Molecular Devices).
Cell activity inhibition rate (%)=1 00−(RLUcompound−RLUblank)/(RLUcontrol−RLUblank)×100%, where control refers to the 0.1% DMSO treatment group, and blank refers to the culture medium control. IC50 values and maximum inhibition rates of the compounds were calculated using a nonlinear regression function “Dose-Response-Inhibition” in Graphpad Prism 7.0.
On the technique in general: Cellular ATP, detected with luciferase, serves as a proxy for viable cell number.
`Cc1nc(N2CCN(Cc3ccc(Cc4ccc5c6c(cccc46)C(=O)N5C4CCC(=O)NC4=O)cc3)CC2)cc(-n2cnc(C)n2)n1` (single isomer, unassigned) [Example 47]: the half-maximal inhibitory concentration (IC50) (usually the concentration at which inhibition is half-maximal) came to 0.02 nM.
`O=C1CCC(N2C(=O)c3cccc4c(Cc5ccc(CN6CCN(c7cccc(-n8ccnc8)n7)CC6)cc5)ccc2c34)C(=O)N1` (centres unmarked) [Example 2, 3-(6-(4-((4-(6-(1H-imidazol-1-yl)pyridin-2-yl)piperazin-1-vi)methyl)benzyl)-2-oxobenzo[cd]indol-1(2H)-yl)piperidin-2,6-dione]: the IC50 worked out at 0.02 nM.
For the compound `O=C1CCC(N2C(=O)c3cccc4c(Cc5ccc(CN6CCC(NC(=O)c7cccc(-n8ccnc8)n7)CC6)cc5)ccc2c34)C(=O)N1` (centres unmarked) [Example 6, N-(1-(4-((1-(2,6-dioxopiperidin-3-yl)-2-oxo-1,2-dihydrobenzo[cd]indol-6-yl)methyl)benzyl)piperidin-4-yl)-6-(1H-imidazol-1-yl)pyridin-2-carboxamide], the IC50 came out at 0.07 nM.
In the case of `O=C1CCC(N2C(=O)c3cccc4c(Cc5ccc(CN6CCC(NC(=O)c7ccnc(-n8ccnc8)n7)CC6)cc5)ccc2c34)C(=O)N1` (centres unmarked) [Example 7, N-(1-(4-((1-(2,6-dioxopiperidin-3-yl)-2-oxo-1,2-dihydrobenzo[cd]indol-6-yl)methyl)benzyl)piperidin-4-yl)-2-(1H-imidazol-1-yl)pyrimidin-4-carboxamide], the midpoint of inhibition, the IC50, lay at 0.05 nM. This IC50 and that of the compound before are within 1.5-fold of each other.
The figure for `O=C1CCC(N2C(=O)c3cccc4c(Cc5ccc(CN6CCN(CC7CCN(c8cccc(-n9ccnc9)n8)CC7)CC6)cc5)ccc2c34)C(=O)N1` (centres unmarked) [Example 8, 3-(6-(4-((4-((1-(6-(1H-imidazol-1-yl)pyridin-2-yl)piperidin-4-yl)methyl)piperazin-1-yl)methyl)benzyl)-2-oxobenzo[cd]indol-1(2H)-yl)piperidin-2,6-dione] is 0.04 nM; for `O=C1CCC(N2C(=O)c3cccc4c(Cc5ccc(CN6CCC(Nc7ccnc(-n8ccnc8)n7)CC6)cc5)ccc2c34)C(=O)N1` (centres unmarked) [Example 9, 3-(6-(4-((4-((2-(1H-imidazol-1-yl)pyrimidin-4-yl)amino)piperidin-1-yl)methyl)benzyl)-2-oxobenzo[cd]indol-1(2H)-yl)piperidin-2,6-dione] it is 0.07 nM; for `Cc1cc(N2CCN(Cc3ccc(Cc4ccc5c6c(cccc46)C(=O)N5C4CCC(=O)NC4=O)cc3)CC2)nc(-n2ccnc2)n1` (centres unmarked) [Example 10, 3-(6-(4-((4-(2-(1H-imidazol-1-yl)-6-methylpyrimidin-4-yl)piperazin-1-yl)methyl)benzyl)-2-oxobenzo[cd]indol-1(2H)-yl)piperidin-2,6-dione] it is 0.03 nM.
`Cc1cc(C(=O)N2CCN(Cc3ccc(Cc4ccc5c6c(cccc46)C(=O)N5C4CCC(=O)NC4=O)cc3)CC2)nc(-n2ccnc2)n1` (centres unmarked) [Example 11, 3-(6-(4-((4-(2-(1H-imidazol-1-yl)-6-methylpyrimidin-4-carbonyl)piperazin-1-yl)methyl)benzyl)-2-oxobenzo[cd]indol-1(2H)-yl)piperidin-2,6-dione] yielded an IC50 of 0.05 nM.
The result for `Cc1cc(C(=O)NC2CCN(Cc3ccc(Cc4ccc5c6c(cccc46)C(=O)N5C4CCC(=O)NC4=O)cc3)CC2)nc(-n2ccnc2)n1` (centres unmarked) [Example 12, N-(1-(4-((1-(2,6-dioxopiperidin-3-yl)-2-oxo-1,2-dihydrobenzo[cd]indol-6-yl)methyl)benzyl)piperidin-4-yl)-2-(1H-imidazol-1-yl)-6-methylpyrimidin-4-carboxamide] reads 0.07 nM; that for `O=C1CCC(N2C(=O)c3cccc4c(Cc5ccc(CN6CCN(c7ccnc(-n8ccnc8C(F)(F)F)n7)CC6)cc5)ccc2c34)C(=O)N1` (centres unmarked) [Example 13, 3-(2-oxo-6-(4-((4-(2-(2-(trifluoromethyl)-1H-imidazol-1-yl)pyrimidin-4-yl)piperazin-1-yl)methyl)benzyl)benzo[cd]indol-1(2H)-yl)piperidin-2,6-dione], 0.07 nM.
Take `O=C1CC[C@H](N2Cc3c(OCc4ccc(CN5CCN([C@H]6CC[C@H](NC(=O)c7ccnc(-n8ccnc8)n7)CC6)CC5)cc4)cccc3C2=O)C(=O)N1` [Example 15, N-((1R,4R)-4-(4-(4-(((2-((S)-2,6-dioxopiperidin-3-yl)-1-oxoisoindolin-4-yl)oxy)methyl)benzyl)piperazin-1-yl)cyclohexyl)-2-(1H-imidazol-1-yl)pyrimidin-4-carboxamide]: the IC50 stood at 0.1 nM.
As to `O=C1CC[C@H](N2Cc3c(OCc4ccc(CN5CCN([C@H]6CC[C@H](NC(=O)c7cccc(-n8ccnc8)n7)CC6)CC5)cc4)cccc3C2=O)C(=O)N1` [Example 16, N-((1R,4R)-4-(4-(4-(((2-((S)-2,6-dioxopiperidin-3-yl)-1-oxoisoindolin-4-yl)oxy)methyl)benzyl)piperazin-1-yl)cyclohexyl)-6-(1H-imidazol-1-yl)pyridin-2-carboxamide], the IC50 turned out to be 0.05 nM.
`O=C1CC[C@H](N2Cc3c(OCc4ccc(CN5CCN(CC6CCN(c7cccc(-n8ccnc8)n7)CC6)CC5)cc4)cccc3C2=O)C(=O)N1` [Example 17, (S)-3-(4-((4-((4-((1-(6-(1H-imidazol-1-yl)pyridin-2-yl)piperidin-4-yl)methyl)piperazin-1-yl)methyl)benzyl)oxy)-1-oxoisoindolin-2-yl)pyridin-2,6-dione]: the half-inhibitory concentration (IC50) came out at 0.1 nM.
For `O=C1CC[C@H](N2Cc3c(OCc4ccc(CN5CCN(c6cccc(-c7cncs7)n6)CC5)cc4)cccc3C2=O)C(=O)N1` [Example 19, (S)-3-(1-oxo-4-((4-((4-(6-(thiazol-5-yl)pyridin-2-yl)piperazin-1-yl)methyl)benzyl)oxy)isoindolin-2-yl)piperidin-2,6-dione], the half-maximal inhibitory concentration (IC50) was determined as 0.3 nM.
Compound `Cn1cncc1-c1nccc(N2CCN(Cc3ccc(Cc4ccc5c6c(cccc46)C(=O)N5C4CCC(=O)NC4=O)cc3)CC2)n1` (centres unmarked) [Example 20, 3-(6-(4-((4-(2-(1-methyl-1H-imidazol-5-yl)pyrimidin-4-yl)piperazin-1-yl)methyl)benzyl)-2-oxobenzo[cd]indol-1(2H)-yl)piperidin-2,6-dione] gave an IC50 of 0.01 nM.
Take `CC(C)n1cnnc1-c1cccc(N2CCN(Cc3ccc(Cc4ccc5c6c(cccc46)C(=O)N5C4CCC(=O)NC4=O)cc3)CC2)n1` (centres unmarked) [Example 24, 3-(6-(4-((4-(6-(4-isopropyl-4H-1,2,4-triazol-3-yl)pyridin-2-yl)piperazin-1-yl)methyl)benzyl)-2-oxobenzo[cd]indol-1(2H)-yl)piperidin-2,6-dione]: it took 0.1 nM to reach half-maximal inhibition (IC50).
Consider `O=C1CCC(N2C(=O)c3cccc4c(Cc5ccc(CN6CCN(c7ccnc(-n8cnc(C9CC9)c8)n7)CC6)cc5)ccc2c34)C(=O)N1` (centres unmarked) [Example 26, 3-(6-(4-((4-(2-(4-cyclopropvl-1H-imidazol-1-yl)pyrimidin-4-yl)piperazin-1-yl)methyl)benzyl)-2-oxobenzo[cd]indol-1(2H)-yl)piperidin-2,6-dione], for which 0.06 nM corresponded to half-maximal inhibition (IC50).
`O=C1CCC(N2C(=O)c3cccc4c(Cc5ccc(CN6CCC(O[C@H]7CC[C@@H](NC(=O)c8cccc(-n9ccnc9)n8)CC7)CC6)cc5)ccc2c34)C(=O)N1` (some centres unmarked) [Example 27, N-((1s,4s)-4-((1-(4-((1-(2,6-dioxopiperidin-3-yl)-2-oxo-1,2-dihydrobenzo[cd]indol-6-yl)methyl)benzyl)piperidin-4-yl)oxy)cyclohexyl)-6-(1H-imidazol-1-yl)pyridin-2-carboxamide] displayed an IC50 of 0.1 nM.
The compound `Cc1nncn1-c1cccc(N2CCN(Cc3ccc(Cc4ccc5c6c(cccc46)C(=O)N5C4CCC(=O)NC4=O)cc3)CC2)n1` (centres unmarked) [Example 28, 3-(6-(4-((4-(6-(3-methyl-4H-1,2,4-triazol-4-yl)pyridin-2-yl)piperazin-1-yl)methyl)benzyl)-2-oxobenzo[cd]indol-1(2H)-yl)piperidin-2,6-dione] returned an IC50 of 0.03 nM. Against the preceding compound, the IC50 is about 3.3-fold lower.
On to `Cc1nc(N2CCN(Cc3ccc(Cc4ccc5c6c(cccc46)C(=O)N5C4CCC(=O)NC4=O)cc3)CC2)cc(-n2cnc(C(F)(F)F)c2)n1` (centres unmarked) [Example 29, 3-(6-(4-((4-(2-methyl-6-(4-(trifluoromethyl)-1H-imidazol-1-yl)pyrimidin-4-yl)piperazin-1-yl)methyl)benzyl)-2-oxobenzo[cd]indol-1(2H)-yl)piperidin-2,6-dione], for which the IC50 was 0.02 nM.
On to `O=C1CCC(N2C(=O)c3cccc4c(Cc5ccc(CN6CC(N7CCN(c8cccc(-n9ccnc9)n8)CC7)C6)cc5)ccc2c34)C(=O)N1` (centres unmarked) [Example 32], for which the IC50 is less than 0.005 nM.
`O=C1CC[C@H](N2C(=O)c3cccc4c(Cc5ccc(CN6CCN(c7ccnc(-n8cnc(C(F)(F)F)c8)n7)CC6)cc5)ccc2c34)C(=O)N1` [Example 33, (S)-3-(2-oxo-6-(4-((4-(2-(4-(trifluoromethyl)-1H-imidazol-1-yl)pyrimidin-4-yl)piperazin-1-yl)methyl)benzyl)benzo[cd]indol-1(2H)-yl)piperidin-2,6-dione]: inhibition was half-maximal at 0.02 nM (IC50). That is a picomolar value.
Take `O=C1CC[C@@H](N2C(=O)c3cccc4c(Cc5ccc(CN6CCN(c7ccnc(-n8cnc(C(F)(F)F)c8)n7)CC6)cc5)ccc2c34)C(=O)N1` [Example 34, (R)-3-(2-oxo-6-(4-((4-(2-(4-(trifluoromethyl)-1H-imidazol-1-yl)pyrimidin-4-yl)piperazin-1-yl)methyl)benzyl)benzo[cd]indol-1(2H)-yl)piperidin-2,6-dione]: the IC50 amounted to 0.03 nM.

These data come from patent US20260272924A1, “ISOINDOLINE DERIVATIVE, BENZOINDOLE DERIVATIVE AND USE THEREOF” (SHANGHAI HELIOSON PHARMACEUTICAL CO., LTD., priority 2023, published 2026).
